From patent US20110028566A1, “COMPOSITIONS AND PRODUCTS CONTAINING CYCLOALIPHATIC DIOL ANTIMICROBIAL AGENTS AND METHODS OF USING THE COMPOSITIONS AND PRODUCTS” (EASTMAN CHEMICAL COMPANY, priority 2009, published 2011)

What was measured:
Format in all cases: cell-based
Aspergillus niger = assay: Microbial challenge testing in BPW; conditions: for Grade code, A. niger, 3 Day / Grade code, A. niger, 13 Day / Grade code, A. niger, 30 Day: BPW, w/v % in label, average of replicates
In short: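 A. niger grown in TSB with 1% dextrose and on SDA at 22° C.±2° C; spores harvested, filtered, adjusted to 1.0×10^8 and checked by hemocytometer.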

Trichophyton rubrum = assay: Challenge testing with pathogenic fungi in SDB; conditions: w/v % in label, INT respiratory dye; for Grade code, Pathogenic Fungi, T. ruburm, 3 Days: 3 days incubation; for Grade code, Pathogenic Fungi, T. ruburm, 14 Days: 14 days incubation; for Grade code, Pathogenic Fungi, T. ruburm, 30 Days: 30 days incubation
Procedure: (§1) Both M. canis and Trichophyton rubrum were grown on Sabouraud dextrose broth (SDB) (pH 5.6), while Malassezia fufur was grown in SDB supplemented with 2% (v/v) of olive oil and 0.2% (v/v) of Tween™ 80; incubation was at 22° C.±2° C. under continuous agitation by stirring for 10 days. The organisms were grown to a cell concentration of between 10^3 and 10^4 cfu/mL. The actual inoculation cell concentration of these challenges was determined by diluting in sterile buffer water and (spread-plate method) plating for enumeration.
(§2) Challenge organisms were used to inoculate tubes containing each test material (CHDM, etc) or combination of test materials, at concentrations given in Table 5, in SDB (or for M. furfur, in SDB supplemented with olive oil and Tween™ 80). The inoculations were in the amount of 1.5 mL aliquots of each culture with static incubation at 22±2° C. Subcultures were made after 3-, 14-, and 30-days incubation. All challenges were conducted in triplicate. In the case of M. canis, the growth response was assessed by the visual presence or absence of growth in the tubes; in the case of T. rubrum, a respiratory dye (0.2% w/v aqueous INT solution: 2-(4-iodophenyl)-3-(4-nitrophenyl)-5-phenyl tetrazolium chloride) was added to the tubes, turning red if the organism was viable; and, finally, in the case of M. furfur, the growth response was assessed based upon visible pellicle formation in the tubes at the meniscus. The fungal growth in each tube was assigned a grade code as follows:
(§3) 0: No visible growth 1: Some growth in tube 2: Moderate growth in tube 3: Good growth in tube 4: Extreme growth in tube
(§4) All test material concentrations are given as w/v %. The grade codes given are the average of the grade codes for duplicate or triplicate samples.
(§5) Table 5 compares the antimicrobial activity of 1,4-CHDM (AB) alone to 1,4-CHDM in combination with EDTA, phenoxyethanol (PE), and caprylyl glycol (CG). CHDM at 0.5% was tested with EDTA, and at 1.25 and 2.5% with EDTA, PE, and CG. (Note that the combination of CHDM with only EDTA was not tested against pathogenic fungi.) Results are also given for EDTA, PE, and CG alone, so the result for each mixture can be compared to the antimicrobial activity for each of its components individually. […] Possible synergies were determined by treating the grade code as an estimate of the log of the microbial count (log of cfu/mL). Log reductions can then be estimated by subtracting each grade code from the grade code for broth alone (grade code 5, except for the pathogenic fungi).

Malassezia furfur = assay: Challenge testing with pathogenic fungi in SDB; conditions: SDB with olive oil and Tween 80, w/v % in label, pellicle formation; for Grade code, Pathogenic Fungi, M. furfur, 3 Days: 3 days incubation; for Grade code, Pathogenic Fungi, M. furfur, 14 Days: 14 days incubation; for Grade code, Pathogenic Fungi, M. furfur, 30 Days: 30 days incubation
Procedure: as §1, §2, §3, §4, §5

Candida albicans = assay: Microbial challenge testing in BPW; conditions: for Grade code, C. albicans, 3 Day / Grade code, C. albicans, 14 Day / Grade code, C. albicans, 30 Days: BPW, w/v % in label, average of replicates
In short: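 C. albicans was grown in TSB with 1% dextrose at 22°C and harvested by gauze filtration and centrifugation. It was then adjusted by turbidity in pH 7.2 phosphate buffer and checked by hemocytometer and SDA plate counts. The inoculum was added to BPW (pH 7.0, 1% dextrose) containing test materials, giving 10^5–10^6 cfu/mL at time zero.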

[1] = 3 days incubation, listed as 0.5% AB
[2] = 3 days incubation, listed as 1.25% AB
[3] = 3 days incubation, listed as 2.5% AB
[4] = 30 days incubation, listed as 0.5% AB
[5] = 30 days incubation, listed as 1.25% AB
[6] = 30 days incubation, listed as 2.5% AB

Question: With OCC1CCC(CO)CC1 (stereo not drawn) [1,4-CHDM, 1,4-cyclohexanedimethanol] as the compound, how does the “Grade code A. niger” value (Aspergillus niger; 0.5%, 3 days incubation) read?
Answer: 4

Question: And the “Grade code A. niger” value (Aspergillus niger; 0.5%, 13 days incubation)?
Answer: 4

Question: And the “Grade code A. niger” value (Aspergillus niger; 0.5%, 30 days incubation)?
Answer: 4

Question: And the “Grade code A. niger” value (Aspergillus niger; 1.25%, 3 days incubation)?
Answer: 4

Question: What about the “Grade code A. niger” value (Aspergillus niger; 1.25%, 13 days incubation) of the same compound?
Answer: 4

Question: What about the “Grade code A. niger” value (Aspergillus niger; 1.25%, 30 days incubation) of the same compound?
Answer: 4

Question: What about the “Grade code A. niger” value (Aspergillus niger; 2.5%, 3 days incubation) of the same compound?
Answer: 2 (Countable (11 to 100 colonies))

Question: What about the “Grade code A. niger” value (Aspergillus niger; 2.5%, 13 days incubation) of the same compound?
Answer: 1 (Countable (1 to 10 colonies))

Question: And the “Grade code A. niger” value (Aspergillus niger; 2.5%, 30 days incubation)?
Answer: 2.3

Question: And the “Grade code, A. niger, 3 Day” value (Aspergillus niger; [1])?
Answer: 4

Question: And the “Grade code, A. niger, 3 Day” value (Aspergillus niger; [2])?
Answer: 4

Question: What about the “Grade code, A. niger, 3 Day” value (Aspergillus niger; [3]) of the same compound?
Answer: 2 (Countable (11 to 100 colonies))

Question: What about the “Grade code, A. niger, 13 Day” value (Aspergillus niger; 13 days incubation, listed as 0.5% AB) of the same compound?
Answer: 4

Question: And the “Grade code, A. niger, 13 Day” value (Aspergillus niger; 13 days incubation, listed as 1.25% AB)?
Answer: 4

Question: And the “Grade code, A. niger, 13 Day” value (Aspergillus niger; 13 days incubation, listed as 2.5% AB)?
Answer: 1 (Countable (1 to 10 colonies))

Question: And the “Grade code, A. niger, 30 Day” value (Aspergillus niger; [4])?
Answer: 4

Question: What about the “Grade code, A. niger, 30 Day” value (Aspergillus niger; [5]) of the same compound?
Answer: 4

Question: What about the “Grade code, A. niger, 30 Day” value (Aspergillus niger; [6]) of the same compound?
Answer: 2.3

Question: What about the “Grade code, Pathogenic Fungi, T. ruburm, 3 Days” value (from here on “Grade code … T. ruburm, 3 Days”) (Trichophyton rubrum; listed as 0.5% AB) of the same compound?
Answer: 1

Question: What about the “Grade code … T. ruburm, 3 Days” value (Trichophyton rubrum; listed as 1.25% AB) of the same compound?
Answer: 0

Question: What about the “Grade code … T. ruburm, 3 Days” value (Trichophyton rubrum; listed as 2.5% AB) of the same compound?
Answer: 0

Question: And the “Grade code, Pathogenic Fungi, T. ruburm, 14 Days” value (shortened to “Grade code … T. ruburm, 14 Days”) (Trichophyton rubrum; listed as 0.5% AB)?
Answer: 1

Question: And the “Grade code … T. ruburm, 14 Days” value (Trichophyton rubrum; listed as 1.25% AB)?
Answer: 0

Question: And the “Grade code … T. ruburm, 14 Days” value (Trichophyton rubrum; listed as 2.5% AB)?
Answer: 0

Question: And the “Grade code, Pathogenic Fungi, T. ruburm, 30 Days” value (“Grade code … T. ruburm, 30 Days” for short) (Trichophyton rubrum; listed as 0.5% AB)?
Answer: 1

Question: What about the “Grade code … T. ruburm, 30 Days” value (Trichophyton rubrum; listed as 1.25% AB) of the same compound?
Answer: 0

Question: What about the “Grade code … T. ruburm, 30 Days” value (Trichophyton rubrum; listed as 2.5% AB) of the same compound?
Answer: 0

Question: What about the “Grade code, Pathogenic Fungi, M. furfur, 3 Days” value (Malassezia furfur) of the same compound?
Answer: 0

Question: And the “Grade code, Pathogenic Fungi, M. furfur, 14 Days” value (“Grade code … M. furfur, 14 Days” below) (Malassezia furfur; listed as 0.5% AB)?
Answer: 1

Question: And the “Grade code … M. furfur, 14 Days” value (Malassezia furfur; listed as 1.25% AB)?
Answer: 0

Question: What about the “Grade code … M. furfur, 14 Days” value (Malassezia furfur; listed as 2.5% AB) of the same compound?
Answer: 0

Question: And the “Grade code, Pathogenic Fungi, M. furfur, 30 Days” value (shortened to “Grade code … M. furfur, 30 Days”) (Malassezia furfur; listed as 0.5% AB)?
Answer: 2

Question: What about the “Grade code … M. furfur, 30 Days” value (Malassezia furfur; listed as 1.25% AB) of the same compound?
Answer: 0

Question: What about the “Grade code … M. furfur, 30 Days” value (Malassezia furfur; listed as 2.5% AB) of the same compound?
Answer: 0

Question: What about the “Grade code C. albicans” value (Candida albicans; 0.5%, 3 days incubation) of the same compound?
Answer: 3 (101 to 1000 colonies (thus 1000 to 10,000 cfu/mL))

Question: What about the “Grade code C. albicans” value (Candida albicans; 0.5%, 14 days incubation) of the same compound?
Answer: 4 (1001 to 10,000 colonies (thus 10,000 cfu/mL to 100,000 cfu/mL))

Question: And the “Grade code C. albicans” value (Candida albicans; 0.5%, 30 days incubation)?
Answer: 4 (1001 to 10,000 colonies (thus 10,000 cfu/mL to 100,000 cfu/mL))

Question: What about the “Grade code C. albicans” value (Candida albicans; 1.25%, 3 days incubation) of the same compound?
Answer: 1 (1 to 51 colonies counted (thus 10 to 510 cfu/mL))

Question: What about the “Grade code C. albicans” value (Candida albicans; 1.25%, 14 days incubation) of the same compound?
Answer: 3 (101 to 1000 colonies (thus 1000 to 10,000 cfu/mL))

Question: And the “Grade code C. albicans” value (Candida albicans; 1.25%, 30 days incubation)?
Answer: 4 (1001 to 10,000 colonies (thus 10,000 cfu/mL to 100,000 cfu/mL))

Question: And the “Grade code C. albicans” value (Candida albicans; 2.5%, 3 days incubation)?
Answer: 0 (No growth detected or <1 colony (thus <10 cfu/mL))

Question: What about the “Grade code C. albicans” value (Candida albicans; 2.5%, 14 days incubation) of the same compound?
Answer: 2 (52 to 100 colonies counted (thus 520 to 1000 cfu/mL))

Question: And the “Grade code C. albicans” value (Candida albicans; 2.5%, 30 days incubation)?
Answer: 1 (1 to 51 colonies counted (thus 10 to 510 cfu/mL))

Question: And the “Grade code, C. albicans, 3 Day” value (Candida albicans; [1])?
Answer: 3 (101 to 1000 colonies (thus 1000 to 10,000 cfu/mL))

Question: What about the “Grade code, C. albicans, 3 Day” value (Candida albicans; [2]) of the same compound?
Answer: 1 (1 to 51 colonies counted (thus 10 to 510 cfu/mL))

Question: What about the “Grade code, C. albicans, 3 Day” value (Candida albicans; [3]) of the same compound?
Answer: 0 (No growth detected or <1 colony (thus <10 cfu/mL))

Question: And the “Grade code, C. albicans, 14 Day” value (Candida albicans; 14 days incubation, listed as 0.5% AB)?
Answer: 4 (1001 to 10,000 colonies (thus 10,000 cfu/mL to 100,000 cfu/mL))

Question: And the “Grade code, C. albicans, 14 Day” value (Candida albicans; 14 days incubation, listed as 1.25% AB)?
Answer: 3 (101 to 1000 colonies (thus 1000 to 10,000 cfu/mL))

Question: What about the “Grade code, C. albicans, 14 Day” value (Candida albicans; 14 days incubation, listed as 2.5% AB) of the same compound?
Answer: 2 (52 to 100 colonies counted (thus 520 to 1000 cfu/mL))

Question: And the “Grade code, C. albicans, 30 Days” value (Candida albicans; [4])?
Answer: 4 (1001 to 10,000 colonies (thus 10,000 cfu/mL to 100,000 cfu/mL))

Question: And the “Grade code, C. albicans, 30 Days” value (Candida albicans; [5])?
Answer: 4 (1001 to 10,000 colonies (thus 10,000 cfu/mL to 100,000 cfu/mL))

Question: What about the “Grade code, C. albicans, 30 Days” value (Candida albicans; [6]) of the same compound?
Answer: 1 (1 to 51 colonies counted (thus 10 to 510 cfu/mL))

Question: CCCCCCC(O)CO (stereo not drawn) [CG, 1,2-octanediol] was tested. Which “Grade code, A. niger, 3 Day” value (Aspergillus niger; 3 days incubation) did it give?
Answer: 4

Question: And the “Grade code, A. niger, 13 Day” value (Aspergillus niger; 13 days incubation, listed as 0.25% CG)?
Answer: 4

Question: What about the “Grade code, A. niger, 13 Day” value (Aspergillus niger; 13 days incubation, listed as 0.5% CG) of the same compound?
Answer: 2 (Countable (11 to 100 colonies))

Question: What about the “Grade code, A. niger, 30 Day” value (Aspergillus niger; 30 days incubation, listed as 0.25% CG) of the same compound?
Answer: 4

Question: What about the “Grade code, A. niger, 30 Day” value (Aspergillus niger; 30 days incubation, listed as 0.5% CG) of the same compound?
Answer: 1 (Countable (1 to 10 colonies))

Question: What about the “Grade code … T. ruburm, 3 Days” value (Trichophyton rubrum) of the same compound?
Answer: 0

Question: And the “Grade code … T. ruburm, 14 Days” value (Trichophyton rubrum)?
Answer: 0

Question: And the “Grade code … T. ruburm, 30 Days” value (Trichophyton rubrum)?
Answer: 0

Question: What about the “Grade code, Pathogenic Fungi, M. furfur, 3 Days” value (Malassezia furfur) of the same compound?
Answer: 0

Question: What about the “Grade code … M. furfur, 14 Days” value (Malassezia furfur) of the same compound?
Answer: 0

Question: What about the “Grade code … M. furfur, 30 Days” value (Malassezia furfur) of the same compound?
Answer: 0

Question: What about the “Grade code, C. albicans, 3 Day” value (Candida albicans; 3 days incubation) of the same compound?
Answer: 3 (101 to 1000 colonies (thus 1000 to 10,000 cfu/mL))

Question: And the “Grade code, C. albicans, 14 Day” value (Candida albicans; 14 days incubation)?
Answer: 0 (No growth detected or <1 colony (thus <10 cfu/mL))

Question: What about the “Grade code, C. albicans, 30 Days” value (Candida albicans; 30 days incubation) of the same compound?
Answer: 0 (No growth detected or <1 colony (thus <10 cfu/mL))
